Assay results reported in PMC12314051, “Design, antiproliferative potency, and in silico studies of novel 5-methylfuran-3-yl)thio)-3-phenylquinazolin-4(3H)-one based derivatives as potential EGFR inhibitors” (Scientific Reports, 2025).
Like-named read-outs stand apart in the source and are kept apart here.

What was measured:
HCT-116 cells = experiment: MTT cytotoxicity assay, HCT-116; format: cell-based; settings: Homo sapiens
Protocol: (§1) Following the published protocol[75]–[77], the cytotoxic effects of the newly synthesized quinazolinones 1–10 were assessed in vitro using the MTT test method on human liver HepG-2, breast MCF-7, colorectal HCT-116 cancer cell lines, and normal diploid cell line WI-38. There were further details in the supplemetary file.
(§2) The cell lines were obtained from Karolinska Center, Department of Oncology and Pathology, Karolinska Institute and Hospital, Stockholm, Sweden, as follows: human liver HepG-2, breast MCF-7, and colorectal HCT-116 cancer cell lines and human diploid cell line WI-38. Exponentially, cells were placed in 10^4 cells/ well for 24 h, and then fresh medium containing different concentrations of the tested sample. two-fold serial dilution of the tested sample was added using a multichannel pipette. Moreover, all cells were cultivated at 37 °C, 5% CO2 and 95% humidity. Also, incubation of control cells occurred at 37 °C. However, after incubation for 24 h different concentrations of the sample (100, 50, 25, 12.5, 6.25, 3.125, and 1.56 µM) were added, and continued the incubation for 48 h, then, add the crystal violet solution of 1% to each well for 0.5 h to examine viable cells. Rinse the wells using water until no stain. After that, add 30% glacial acetic acid to all wells with shaking plates on a Microplate reader (TECAN, Inc.) to measure the absorbance, using a test wavelength of 490 nm. Besides, compare the treated samples with the control cell. The cytotoxicity was estimated by IC50 in (μM), the concentration that inhibits 50% of growth of cancer cell.

MCF-7 cells = experiment: MTT cytotoxicity assay, MCF-7; format: cell-based; settings: Homo sapiens
Protocol: as §1, §2

WI-38 cells = experiment: MTT cytotoxicity assay, normal WI-38; format: cell-based; settings: Homo sapiens
Protocol: . […]. Furthermore, the MTT assay was employed to examine the safety profiles of the cytotoxic activity against the normal human diploid cell line WI-38 (Table 1). […]. They could therefore be considered safe chemotherapeutic agents.
as §1, §2

[1] = test system: HepG-2, HCT-116 and MCF-7 cell lines; experiment: MTT cytotoxicity, all screened cancer cell lines together (SAR summary); format: cell-based, human
Protocol: […]. In addition, replacement of acetyl group in 2 with pyrazoline moiety with free N-1 in 7 or bound to thiazole in 9, yielded weak activity.
as §1, §2

HepG-2 cells = experiment: MTT cytotoxicity assay, HepG-2; format: cell-based; settings: Homo sapiens
Protocol: as §1, §2

VEGFR-2 = molecular target: T1, VEGFR-2 (Homo sapiens, UniProt P35968); experiment: In vitro VEGFR-2 inhibition assay (ELISA kit); format: biochemical; settings: read-out: IC50 (mean ± SD)
T1 construct: purchased Ray Biotech
T1 sequence (P35968 20-1356): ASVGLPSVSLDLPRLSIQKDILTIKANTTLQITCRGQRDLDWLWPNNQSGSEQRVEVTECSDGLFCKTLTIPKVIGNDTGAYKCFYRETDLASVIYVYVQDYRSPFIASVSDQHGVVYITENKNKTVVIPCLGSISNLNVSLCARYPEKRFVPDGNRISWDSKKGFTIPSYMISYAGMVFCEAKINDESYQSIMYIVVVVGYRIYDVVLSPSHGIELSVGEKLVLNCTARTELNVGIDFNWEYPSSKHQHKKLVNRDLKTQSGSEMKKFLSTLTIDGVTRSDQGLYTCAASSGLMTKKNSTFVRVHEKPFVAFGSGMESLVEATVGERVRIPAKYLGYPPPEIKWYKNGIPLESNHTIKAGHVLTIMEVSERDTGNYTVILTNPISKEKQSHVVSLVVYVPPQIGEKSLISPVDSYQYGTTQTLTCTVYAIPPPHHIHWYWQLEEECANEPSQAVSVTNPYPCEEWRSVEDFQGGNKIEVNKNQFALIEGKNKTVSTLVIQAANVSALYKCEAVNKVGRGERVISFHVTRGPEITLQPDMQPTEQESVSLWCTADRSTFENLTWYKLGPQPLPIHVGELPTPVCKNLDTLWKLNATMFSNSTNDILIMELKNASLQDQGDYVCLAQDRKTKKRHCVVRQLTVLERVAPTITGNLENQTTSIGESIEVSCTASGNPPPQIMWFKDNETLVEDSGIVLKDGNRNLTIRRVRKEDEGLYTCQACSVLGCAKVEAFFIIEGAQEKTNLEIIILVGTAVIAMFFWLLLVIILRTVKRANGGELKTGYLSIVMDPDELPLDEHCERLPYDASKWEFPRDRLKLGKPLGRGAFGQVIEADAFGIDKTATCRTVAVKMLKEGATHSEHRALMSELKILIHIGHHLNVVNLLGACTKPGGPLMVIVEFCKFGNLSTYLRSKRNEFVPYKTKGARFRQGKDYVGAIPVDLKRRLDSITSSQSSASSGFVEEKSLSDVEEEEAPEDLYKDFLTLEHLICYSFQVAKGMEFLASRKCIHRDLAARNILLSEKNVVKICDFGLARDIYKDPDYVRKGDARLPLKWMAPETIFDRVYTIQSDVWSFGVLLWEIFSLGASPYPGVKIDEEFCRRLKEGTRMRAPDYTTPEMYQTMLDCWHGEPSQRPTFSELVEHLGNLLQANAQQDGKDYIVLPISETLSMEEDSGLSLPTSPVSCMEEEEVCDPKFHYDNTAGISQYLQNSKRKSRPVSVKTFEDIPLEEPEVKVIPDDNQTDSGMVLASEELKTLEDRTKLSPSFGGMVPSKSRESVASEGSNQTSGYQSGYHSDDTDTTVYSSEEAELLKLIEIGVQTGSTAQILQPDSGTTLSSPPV
Protocol: Quinazolinone-based targets 1, 6b, 8a, and 10 were chosen for further evaluation of their in vitro inhibitory activity against EGFR and VEGFR-2 because of their exceptional cytotoxic outcomes, with the goal of clarifying their mode of action. […]. VEGFR-2 assay: the effect of the most promising cytotoxic compounds 1, 6b, 8a, and 10 was evaluated for their in vitro inhibitory activity against Human VEGFR-2 using ELISA kit according to manufacturer's instructions (Ray Biotech). This assay employs an antibody specific for human VEGFR-2 coated on a 96-well plate. Samples and standards were added to the wells and incubated over night at 4 °C with gentle shaking. The wells were washed and biotinylated antibody was added followed by incubation for one hour at room temperature. After washing away unbound biotinylated antibody, HRP conjugated streptavidin was pipetted to the wells and
incubated at room temperature for 45 min. The wells were then washed; TMB substrate solution was added and incubated for 30 min. The color developed was in proportion to the amount of VEGFR-2 bound. The Stop Solution was added and the intensity of the color was measured at 450 nm. Percent inhibition was calculated by the comparison of compounds treated to control incubations. […]

EGFR = molecular target: T2, EGFR (Homo sapiens, UniProt P00533); experiment: In vitro EGFR inhibition assay; format: biochemical; settings: for IC50: EGFR, read-out: IC50 (mean ± SD)
T2 construct: purchased Abcam
T2 sequence (P00533 25-1210): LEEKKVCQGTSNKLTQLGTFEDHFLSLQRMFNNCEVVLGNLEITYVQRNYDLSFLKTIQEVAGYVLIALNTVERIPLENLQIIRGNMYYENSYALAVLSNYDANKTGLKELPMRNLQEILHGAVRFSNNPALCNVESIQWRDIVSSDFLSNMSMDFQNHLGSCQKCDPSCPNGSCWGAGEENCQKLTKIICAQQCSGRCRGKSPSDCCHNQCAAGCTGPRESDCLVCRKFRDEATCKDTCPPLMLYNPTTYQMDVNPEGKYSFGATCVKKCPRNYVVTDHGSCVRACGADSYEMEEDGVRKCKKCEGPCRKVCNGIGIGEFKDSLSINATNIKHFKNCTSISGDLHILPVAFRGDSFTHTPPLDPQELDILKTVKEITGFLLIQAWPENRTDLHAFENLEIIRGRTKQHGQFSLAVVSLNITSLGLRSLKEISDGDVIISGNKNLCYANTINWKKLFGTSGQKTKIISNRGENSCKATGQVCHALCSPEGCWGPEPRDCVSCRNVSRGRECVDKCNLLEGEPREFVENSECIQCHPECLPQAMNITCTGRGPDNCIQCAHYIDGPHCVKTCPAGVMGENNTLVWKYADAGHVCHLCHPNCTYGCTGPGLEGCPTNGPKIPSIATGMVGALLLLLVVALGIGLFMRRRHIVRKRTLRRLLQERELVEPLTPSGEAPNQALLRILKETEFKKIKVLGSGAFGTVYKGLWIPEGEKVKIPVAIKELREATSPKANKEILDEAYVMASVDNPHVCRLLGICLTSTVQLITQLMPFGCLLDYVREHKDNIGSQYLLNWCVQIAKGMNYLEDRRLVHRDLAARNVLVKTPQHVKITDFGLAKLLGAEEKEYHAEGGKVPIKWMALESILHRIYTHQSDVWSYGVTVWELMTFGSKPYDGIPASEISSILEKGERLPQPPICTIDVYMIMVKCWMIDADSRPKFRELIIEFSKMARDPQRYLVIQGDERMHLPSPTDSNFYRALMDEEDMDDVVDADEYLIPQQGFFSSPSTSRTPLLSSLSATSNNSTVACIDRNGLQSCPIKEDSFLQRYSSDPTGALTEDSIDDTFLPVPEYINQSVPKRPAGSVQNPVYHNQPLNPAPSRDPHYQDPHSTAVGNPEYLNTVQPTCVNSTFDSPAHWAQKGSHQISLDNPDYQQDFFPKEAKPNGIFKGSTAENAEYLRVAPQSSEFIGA

[2] = HCT-116, MTT assay, read-out: IC50 (mean ± SD)
[3] = MCF7, MCF-7, MTT assay, read-out: IC50 (mean ± SD)
[4] = normal WI-38, MTT assay, read-out: IC50 (mean ± SD)
[5] = HepG-2, HCT-116 and MCF-7 cell lines
[6] = HepG2, HepG-2, MTT assay, read-out: IC50 (mean ± SD)

SMILES	IC50 (HCT-116 cells; [2]) [µM]	IC50 (MCF-7 cells; [3]) [µM]	IC50 (WI-38 cells; [4]) [µM]	cytotoxic activity in words (SAR study) [1, 5]	IC50 (HepG-2 cells; [6]) [µM]	IC50 (VEGFR-2) [µM]	cytotoxic activity in words (SAR study) [1]	IC50 (EGFR) [µM]	IC50 (HCT-116 cells; HCT-116, read-out: IC50 (mean ± SD)) [µM]	IC50 (MCF-7 cells; MCF7, read-out: IC50 (mean ± SD)) [µM]	IC50 (WI-38 cells; WI-38, read-out: IC50 (mean ± SD)) [µM]	IC50 (HepG-2 cells; HepG2, read-out: IC50 (mean ± SD)) [µM]	selectivity EGFR over VEGFR-2 (EGFR; EGFR versus VEGFR-2)
Cc1occ(Sc2nc3ccccc3c(=O)n2-c2ccccc2)c1C1=NNC(c2ccc(Cl)cc2)C1 (stereo not shown) [Compound 7, 2-{{{4-[5-(4-Chlorophenyl)-4,5-dihydro-1H-pyrazol-3-yl]-5-methylfuran-3-yl}thio}}-3-phenylquinazolin-4(3H)-one]	48.9 ± 2.6	45.8 ± 2.5	> 100	weak activity	27.9 ± 1.9								
Cc1occ(Sc2nc3ccccc3c(=O)n2-c2ccccc2)c1C(=O)C=Cc1ccco1 [Compound 3d, 2-{{{4-[3-(Furan-2-yl)acryloyl]-5-methylfuran-3-yl}thio}}-3-phenylquinazolin-4(3H)-one]	25.9 ± 1.7	16 ± 1.3	> 100		18.9 ± 1.4								
Cc1occ(Sc2nc3ccccc3c(=O)n2-c2ccccc2)c1C(=O)C=Cc1ccc(Cl)cc1 [Compound 3a, 2-{{{4-[3-(4-Chlorophenyl)acryloyl]-5-methylfuran-3-yl}thio}}-3-phenylquinazolin-4(3H)-one]	34.1 ± 2.1	37.9 ± 2.2	68.7 ± 3.6		21.8 ± 1.6								
O=C(CCl)Sc1nc2ccccc2c(=O)n1-c1ccccc1 [Compound 1, S-(4-Oxo-3-phenyl-3,4-dihydroquinazolin-2-yl) 2-chloroethanethioate]	19.6 ± 1.4	10.6 ± 0.9	75.4 ± 3.8		13.2 ± 1.1	70.2 ± 2.55	Moderate activity	25.5 ± 1.2					
C#Cc1cccc(Nc2ncnc3cc(OCCOC)c(OCCOC)cc23)c1 [Erlotinib, reference compound]									5.23 ± 0.3	4.17 ± 0.2	6.72 ± 0.5	4.5 ± 0.2	
COc1ccc(C=CC(=O)c2c(Sc3nc4ccccc4c(=O)n3-c3ccccc3)coc2C)cc1 [Compound 3c, 2-{{{4-[3-(4-Methoxyphenyl)acryloyl]-5-methylfuran-3-yl}thio}}-3-phenylquinazolin-4(3H)-one]	> 100	23.4 ± 1.6	53.2 ± 2.9										
CC(=O)c1c(Sc2nc3ccccc3c(=O)n2-c2ccccc2)coc1C [Compound 2, 2-[(4-Acetyl-5-methylfuran-3-yl)thio]-3-phenylquinazolin-4(3H)-one]	78.7 ± 3.7	54.9 ± 3.2	36.9 ± 2.4		47.8 ± 2.8		Weak activity						
Cc1occ(Sc2nc3ccccc3c(=O)n2-c2ccccc2)c1C1=NN(c2nc(Cl)cs2)C(c2ccc(Cl)cc2)C1 (stereo not shown) [Compound 9, 2-{{{4-[5-(4-Chlorophenyl)-1-(4-chlorothiazol-2-yl)-4,5-dihydro-1H-pyrazol-3-yl]-5-methylfuran-3-yl}thio}}-3-phenylquinazolin-4(3H)-one]	74.7 ± 3.9	58 ± 3.4	39.8 ± 2.4	weak activity	44 ± 2.5								
COc1ccc(-c2cc(-c3c(Sc4nc5ccccc5c(=O)n4-c4ccccc4)coc3C)ncc2C#N)cc1 [Compound 5, 4-(4-Methoxyphenyl)-6-{2-methyl-4-[(4-oxo-3-phenyl-3,4-dihydroquinazolin-2-yl)thio]furan-3-yl}nicotinonitrile]	66.3 ± 3.5	50 ± 2.8	17.8 ± 1.4	Weak activity	38.5 ± 2.3								
Cc1occ(Sc2nc3ccccc3c(=O)n2-c2ccccc2)c1C(=O)C=Cc1ccc(F)cc1 [Compound 3b, 2-{{{4-[3-(4-Fluorophenyl)acryloyl]-5-methylfuran-3-yl}thio}}-3-phenylquinazolin-4(3H)-one]	83.3 ± 4.1	71.1 ± 3.8	28.8 ± 1.9		56 ± 3.2								
Cc1occ(Sc2nc3ccccc3c(=O)n2-c2ccccc2)c1C1=NN(C(N)=S)C(c2ccc(Cl)cc2)C1 (stereo not shown) [Compound 8a, 5-(4-Chlorophenyl)-3-{2-methyl-4-[(4-oxo-3-phenyl-3,4-dihydroquinazolin-2-yl)thio]furan-3-yl}-4,5-dihydro-1H-pyrazole-1-carbothioamide]	57.1 ± 3.3	8.29 ± 0.6	63.2 ± 3.3	Excellent activity	9.68 ± 0.8	46.2 ± 1.2		8.53 ± 0.25					
Cc1occ(Sc2nc3ccccc3c(=O)n2-c2ccccc2)c1C1=NN(C(N)=S)C(c2ccc(F)cc2)C1 (stereo not shown) [Compound 8b]	93.4 ± 4.7	76.1 ± 3.9	26.9 ± 1.8	Weak activity	81.5 ± 4.2								
CCOC(=O)C1C(=O)C=C(c2c(Sc3nc4ccccc4c(=O)n3-c3ccccc3)coc2C)CC1c1ccc(F)cc1 (stereo not shown) [Compound 4, Ethyl 4′-fluoro-5-{2-methyl-4-[(4-oxo-3-phenyl-3,4-dihydroquinazolin-2-yl)thio]furan-3-yl}-3-oxo-1,2,3,6-tetrahydro-[1,1′-biphenyl]-2-carboxylate]	87.8 ± 4.3	62.1 ± 3.5	44.9 ± 2.7	Weak activity	64.9 ± 3.5								
Cc1occ(Sc2nc3ccccc3c(=O)n2-c2ccccc2)c1C1=NN(C(=S)N=Cc2ccc(C=O)s2)C(c2ccc(F)cc2)C1 (stereo not shown) [Compound 10, 5-(4-Fluorophenyl)-N-[(5-formylthiophen-2-yl)methylene]-3-(2-methyl-4-{[4-oxo-3-phenyl-3,4-dihydroquinazolin-2-yl)thio]furan-3-yl}-4,5-dihydro-1H-pyrazole-1-carbothioamide]	11.6 ± 0.9	6.49 ± 0.4	35.2 ± 2.2	Excellent activity	8.71 ± 0.7	39.4 ± 1.35		0.51 ± 0.04					substantially more selective for EGFR than VEGFR-2
Cc1occ(Sc2nc3ccccc3c(=O)n2-c2ccccc2)c1C1CC(c2ccc(F)cc2)Nc2ccccc2N1 (stereo not shown) [Compound 6a, 2-{{{4-[4-(4-Fluorophenyl)-2,3,4,5-tetrahydro-1H-benzo[b][1,4]diazepin-2-yl]-5-methylfuran-3-yl}thio}}-3-phenylquinazolin-4(3H)-one]	52.5 ± 3.1	33.6 ± 2	85.1 ± 4.2	Weak activity	35.8 ± 2.1								
